Experimental data reported in patent publication US20140155445A1, “Compounds and Methods for Treating Cancer and Diseases of the Central Nervous System” (Osta Biotechnologies Inc., priority 2007, published 2014).
Counter-ions that a name gives are not always drawn. Like-named read-outs stand apart in the source and are kept apart here.

What was measured:
[1] = biological target: T1, HO-2 (rat brain) (Rattus norvegicus, UniProt P23711); assay: HO enzymatic activity in rat brain microsomal fraction (CO formed from methemalbumin, gas chromatography); format: biochemical
T1 construct: brain microsomes were used as a source of HO-2; from tissue; host or cells: brain microsomal fraction of adult male Sprague-Dawley rats
T1 sequence (P23711 1-315): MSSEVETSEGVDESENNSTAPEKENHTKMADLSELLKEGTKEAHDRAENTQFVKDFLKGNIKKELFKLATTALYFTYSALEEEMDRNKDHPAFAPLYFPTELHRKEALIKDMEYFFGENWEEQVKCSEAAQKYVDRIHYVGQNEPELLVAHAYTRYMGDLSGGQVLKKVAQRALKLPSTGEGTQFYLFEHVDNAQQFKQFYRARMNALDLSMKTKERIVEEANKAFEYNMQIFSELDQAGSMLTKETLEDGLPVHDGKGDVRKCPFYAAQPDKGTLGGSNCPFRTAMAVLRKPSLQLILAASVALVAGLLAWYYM
Description: (§1) Incubations for HO activity analysis were done under conditions for which the rate of CO formation (pmol CO×min^−1×mg protein^−1) was linear with respect to time and microsomal protein concentration. Briefly, reaction mixtures (150 μL) consisting of 100 mM phosphate buffer (pH 7.4), 50 μM methemalbumin, and 1 mg/mL protein were pre-incubated with the inhibitors at final concentrations ranging from 0.1-100 μM for 10 minutes at 37° C. Reactions were initiated by adding NADPH at a final concentration of 1 mM and incubations were performed for an additional 15 minutes at 37° C.
(§2) Incubations for HO activity analysis were done under conditions for which the rate of CO formation (pmol CO/mg protein/minute) was linear with respect to time and microsomal protein concentration. Briefly, reaction mixtures (150 μL) consisting of 100 mM phosphate buffer (pH 7.4), 50 μM methemalbumin and 1 mg/mL protein were pre-incubated with the vehicle (ethanol or water in which the inhibitors were dissolved), or inhibitors at final concentrations ranging from 0.1-1000 μM for 10 minutes at 37° C. Reactions were initiated by adding β-NADPH at a final concentration of 1 mM and incubations were carried out for an additional 15 minutes at 37° C. Reactions were stopped by instantly freezing the reaction mixture on pulverized dry ice and CO formation was measured by gas chromatography using a TA 3000R Process Gas Analyzer (Trace Analytical/Ametek, Newark, Del., USA).
(§3) The values on the abscissa represent the decimal logarithm of the inhibitor's concentration (in μM), whereas the values of the activity on the ordinate are expressed as a percentage of the control experiments without inhibitor.
(§4) The IC50 values for the replicate experiments were employed to generate the reported standard deviation value.

[2] = biological target: T2, HO-1 (rat spleen) (Rattus norvegicus, UniProt P06762); assay: HO enzymatic activity in rat spleen microsomal fraction (CO formed from methemalbumin, gas chromatography); format: biochemical
T2 construct: Spleen microsomes were used as a source of HO-1; from tissue; host or cells: spleen microsomal fraction of adult male Sprague-Dawley rats
T2 sequence (P06762 1-289): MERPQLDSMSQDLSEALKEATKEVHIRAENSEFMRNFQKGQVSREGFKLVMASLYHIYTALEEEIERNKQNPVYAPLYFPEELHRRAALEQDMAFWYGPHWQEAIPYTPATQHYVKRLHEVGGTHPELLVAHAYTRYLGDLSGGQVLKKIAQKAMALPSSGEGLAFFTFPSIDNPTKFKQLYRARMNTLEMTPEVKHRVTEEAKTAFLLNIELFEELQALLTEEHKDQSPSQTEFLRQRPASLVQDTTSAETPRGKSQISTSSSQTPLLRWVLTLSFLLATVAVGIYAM
Description: as §1, §2, §3, §4

[3] = rat brain microsomes, average ± standard deviation of replicate experiments, read-out: IC50 HO-2 (rat brain)/μM
[4] = rat spleen microsomes, average ± standard deviation of replicate experiments, read-out: IC50 HO-1 (rat spleen)/μM
[5] = rat brain microsomes, average ± standard deviation of replicate experiments

Row | IC50 [1, 3] | IC50 [2, 4] | SMILES | other results
1 | 16 ± 8 µM | 1.19 ± 0.03 µM | OC(Cn1ccnc1)c1ccc(Cl)cc1 (racemic) [(±)-1-(4-chloro-phenyl)-2-imidazol-1-yl-ethanol hydrochloride] | –
2 | > 100 µM | ~7 µM | Fc1ccc(COC(Cn2ccnc2)c2ccc(CCc3ccccc3)cc2)cc1 (racemic) [(±)-1-[2-(4-fluoro-benzyloxy)-2-(4-phenethyl-phenyl)-ethyl]-1H-imidazole] | –
3 | > 100 µM | 5 ± 2 µM | Fc1ccc(COC(Cn2ccnc2)c2ccc(-c3ccc(Br)cc3)cc2)cc1 (racemic) [(±)-1-[2-(4′-bromo-biphenyl-4-yl)-2-(4-fluoro-benzyloxy)-ethyl]-1H-imidazole] | –
4 | 6.5 ± 0.1 µM | 2 ± 0.6 µM | OC(CCn1ccnc1)C12CC3CC(CC(C3)C1)C2 (racemic) [(±)-1-adamantan-1-yl-3-imidazol-1-yl-propan-1-ol hydrochloride] | –
5 | > 100 µM | 24 ± 6 µM | O=C(c1ccccc1)C(c1ccccc1)n1ccnc1 (racemic) [(±)-2-imidazol-1-yl-1,2-diphenyl-ethanone hydrochloride] | –
6 | 1 ± 1 µM | 0.225 ± 0.004 µM | OC(Cn1ccnc1)c1ccc(CCc2ccccc2)cc1 (racemic) [(±)-2-imidazol-1-yl-1-(4-phenethyl-phenyl)-ethanol] | –
7 | > 100 µM | 56 ± 6 µM | OC(CCc1ccccc1)Cn1cnnn1 (racemic) [(±)-4-phenyl-1-tetrazol-1-yl-butan-2-ol hydrochloride] | –
8 | – | > 100 µM | CC(=O)C(Cc1ccccc1)n1cncn1 (racemic) [(±)-4-phenyl-3-[1,2,4]triazol-1-yl-butan-2-one] | IC50 HO-2 (rat brain)/μM [1, 5]: INACTIVE
9 | > 100 µM | 0.06 ± 0.03 µM | OC(Cn1ccnc1)c1ccc(-c2ccc(Br)cc2)cc1 (racemic) [drawing 342, (±)-1-(4′-bromo-biphenyl-4-yl)-2-imidazol-1-yl-ethanol] | –
10 | 19 ± 7 µM | 1.33 ± 0.03 µM | COc1ccc(OCC2CO[C@@](CCc3ccc(Cl)cc3)(Cn3ccnc3)O2)cc1 (stereo in doubt) [(2R,4S)-1-[2-[2-(4-chloro-phenyl)-ethyl]-4-(4-methoxy-phenoxymethyl)-[1,3]dioxolan-2-ylmethyl]-1H-imidazole hydrochloride] | –
11 | 3.3 ± 0.9 µM | 1.73 ± 0.01 µM | COCC1CO[C@@](CCc2ccc(Cl)cc2)(Cn2ccnc2)O1 (stereo in doubt) [(2R,4S)-1-{2-[2-(4-chloro-phenyl)-ethyl]-4-methoxymethyl-[1,3]dioxolan-2-ylmethyl}-1H-imidazole hydrochloride] | –
12 | 1.6 ± 0.3 µM | 0.59 ± 0.04 µM | Clc1ccc(CC[C@@]2(Cn3ccnc3)OCC(COc3ccccc3)O2)cc1 (stereo in doubt) [(2R,4S)-1-{2-[2-(4-chloro-phenyl)-ethyl]-4-phenoxymethyl-[1,3]dioxolan-2-ylmethyl}-1H-imidazole hydrochloride] | –
13 | 22 ± 8 µM | 3.5 ± 0.2 µM | Clc1ccc(CC[C@@]2(Cn3ccnc3)OCC(COc3ccc(Br)cc3)O2)cc1 (stereo in doubt) [(2R,4S)-1-{4-(4-bromo-phenoxymethyl)-2-[2-(4-chloro-phenyl)-ethyl]-[1,3]dioxolan-2-ylmethyl}-1H-imidazole hydrochloride] | –
14 | 7.1 ± 0.7 µM | 1.8 ± 0.5 µM | Oc1ccc(OCC2CO[C@@](CCc3ccc(Cl)cc3)(Cn3ccnc3)O2)cc1 (stereo in doubt) [(2R,4S)-2-[2-(4-chlorophenyl)ethyl]-2-[(1H-imidazol-1-yl)methyl]-4-[(4-hydroxyphenyloxy)meth-yl]-1,3-dioxolane hydrochloride] | –
15 | 1.7 ± 0.2 µM | 0.67 ± 0.02 µM | N#Cc1ccc(OCC2CO[C@@](CCc3ccc(Cl)cc3)(Cn3ccnc3)O2)cc1 (stereo in doubt) [(2R,4S)-4-{2-[2-(4-chlorophenyl)ethyl]-2-imidazol-1-ylmethyl-[1,3]dioxolan-4-ylmethoxy}-benzonitrile hydrochloride] | –
16 | 29 ± 6 µM | 28 ± 15 µM | COc1ccc(OCC2CO[C@](CCc3ccc(Cl)cc3)(Cn3ccnc3)O2)cc1 (stereo in doubt) [(2S,4S)-2-[2-(4-chlorophenyl)ethyl]-2-[(1H-imidazol-1-yl)methyl]-4-[(4-methoxyphenyloxy)meth-yl]-1,3-dioxolane hydrochloride] | –
17 | > 100 µM | > 100 µM | c1cn(CCCCCCCCn2ccnc2)cn1 [1,8-bis-(1H-imidazol-1-yl)octane dihydrochloride] | –

The next lines start with the compound.

Row | SMILES | IC50 [1, 3] | IC50 [2, 4] | other results
18 | CC(C(=O)c1ccccc1)n1ccnc1 (racemic) [(±)-2-imidazol-1-yl-1-phenyl-propan-1-one hydrochloride] | – | – | IC50 [1]: > 100 µM; IC50 [2]: 49 ± 2 µM
19 | O=C1c2ccccc2CC1n1ccnc1 (racemic) [(±)-2-imidazol-1-yl-indan-1-one hydrochloride] | > 100 µM | > 100 µM | –
20 | O=C(Cc1ccccc1)C(Cn1ccnc1)c1ccccc1 (racemic) [(±)-4-(1H-imidazol-1-yl)-1,3-diphenyl-butan-2-one hydrochloride] | > 100 µM | 3.85 ± 0.07 µM | –
21 | CC(O)C(Cc1ccc(Cl)cc1)n1ccnc1 (racemic) [(±)-4-(4-chlorophenyl)-3-imidazol-1-yl-butan-2-ol hydrochloride] | – | – | IC50 [1]: > 100 µM; IC50 [2]: 40 ± 2 µM
22 | CC(=O)C(Cc1ccc(Cl)cc1)n1ccnc1 (racemic) [(±)-4-(4-chlorophenyl)-3-imidazol-1-yl-butan-2-one hydrochloride] | – | – | IC50 [1]: > 100 µM; IC50 [2]: > 100 µM
23 | OC(CCc1ccccc1)Cn1cnc(-c2ccccc2)c1 (racemic) [(±)-4-phenyl-1-(4-phenyl-imidazol-1-yl)-butan-2-ol hydrochloride] | > 100 µM | 15 ± 1 µM | –
24 | OC(CCc1ccccc1)Cn1ccnn1 (racemic) [(±)-4-phenyl-1-[1,2,3]triazol-1-yl-butan-2-ol hydrochloride] | > 100 µM | 44 ± 1 µM | –
25 | OC(CCc1ccccc1)Cn1cncn1 (racemic) [(±)-4-phenyl-1-[1,2,4]triazol-1-yl-butan-2-ol hydrochloride] | – | 10.2 ± 0.2 µM | IC50 [1]: 54 ± 12 µM
26 | OC(CCc1ccccc1)Cn1ncnn1 (racemic) [(±)-4-phenyl-1-tetrazol-2-yl-butan-2-ol hydrochloride] | – | – | IC50 [1]: > 100 µM; IC50 [2]: > 100 µM
27 | Clc1ccc(C(Cn2ccnc2)NCc2ccccc2)cc1 (racemic) [(±)-benzyl-[1-(4-chloro-phenyl)-2-imidazol-1-yl-ethyl]amine dihydrochloride] | 22 ± 4 µM | 3.39 ± 0.08 µM | –
28 | Clc1ccc(CC[C@@]2(Cn3ccnc3)OCC(COc3ccc(I)cc3)O2)cc1 (stereo in doubt) [(2R,4S)-1-[2-[2-(4-chloro-phenyl)-ethyl]-4-(4-iodo-phenoxymethyl)-[1,3]dioxolan-2-ylmethyl]-1H-imidazole hydrochloride] | 15 ± 4 µM | 9 ± 3 µM | –
29 | Clc1ccc(CC[C@@]2(Cn3ccnc3)OCC(COc3ccc(C45CC6CC(CC(C6)C4)C5)cc3)O2)cc1 (stereo in doubt) [(2R,4S)-2-[2-(4-chlorophenyl)ethyl]-2-[(1H-imidazol-1-yl)methyl]-4-[(4-adamantan-1-yl-phenoxy)methyl]-1,3-dioxolane hydrochloride] | > 100 µM | > 100 µM | –
30 | Nc1ccc(OCC2CO[C@@](CCc3ccc(Cl)cc3)(Cn3ccnc3)O2)cc1 (stereo in doubt) [(2R,4S)-2-[2-(4-chlorophenyl)ethyl]-2-[(1H-imidazol-1-yl)methyl]-4-[(4-aminophenyloxy)meth-yl]-1,3-dioxolane dihydrochloride] | 13 ± 4 µM | 1.4 ± 0.3 µM | –
31 | Cl.OC(Cn1ccnc1)Cn1ccnc1 [1,3-Di-(1H-imidazol-1-yl)propan-2-ol dihydrochloride] | – | – | IC50 HO-2 (rat brain)/μM [1, 5]: Inactive; IC50 HO-1 (rat spleen)/μM ([2]; rat spleen microsomes, average ± standard deviation of replicate experiments): Inactive
32 | c1cn(CCCCc2ccc(CCCCn3ccnc3)cc2)cn1 [1,4-bis[(4-1H-imidazol-1-yl)butyl]benzene dihydrochloride] | 8 ± 2 µM | 0.4 ± 0.1 µM | –
